The source of these data is ChEMBL document CHEMBL5465560, “Selectivity Literature for EUbOPEN Chemogenomic Library” (2024).

As usually defined, the IC50 is the concentration at which inhibition is half-maximal. Lower therefore signals higher potency.

The structures appear in SMILES notation.

Assay [1] deals with Platelet-derived growth factor receptor beta (Homo sapiens, UniProt P09619). Description: Selectivity interaction (Kinase panel (Z-LYTE Assay)) EUB0001632a PDGFRB. To be noted: at 10 µM.
In assay [2] the target is Calcium/calmodulin-dependent protein kinase type II subunit alpha (Homo sapiens, UniProt Q9UQM7). The note with it: at 10 µM.
Assay [3] has as its target Inhibitor of nuclear factor kappa-B kinase subunit epsilon (Homo sapiens, UniProt Q14164). Description: Selectivity interaction (Enyzmatic assay) EUB0000601a IKBKE.
For assay [4], the target named is Ribosomal protein S6 kinase alpha-1 (Homo sapiens, UniProt Q15418). Put plainly: Selectivity interaction (ActivX KiNativ screen (kinase selectivity in THP-1 cell lysates)) EUB0000639a RPS6KA1. It counts as subcellular. The note with it: lysate, at 0.04 µM.
Assay [5] deals with Dual specificity protein kinase CLK2 (Homo sapiens, UniProt P49760). Description: Selectivity interaction (ActivX KiNativ screen (kinase selectivity in THP-1 cell lysates)) EUB0000639a CLK2. The format is subcellular. The note with it: lysate.
In assay [6] the target is Macrophage colony-stimulating factor 1 receptor (Homo sapiens) (UniProt P07333). Put plainly: Selectivity interaction (KinomeScan (DiscoverX)) EUB0000045b CSF1R.
Assay [7] has as its target T1, Serine/threonine-protein kinase TNNI3K (Homo sapiens) (UniProt Q59H18).
T1 sequence (whole entry): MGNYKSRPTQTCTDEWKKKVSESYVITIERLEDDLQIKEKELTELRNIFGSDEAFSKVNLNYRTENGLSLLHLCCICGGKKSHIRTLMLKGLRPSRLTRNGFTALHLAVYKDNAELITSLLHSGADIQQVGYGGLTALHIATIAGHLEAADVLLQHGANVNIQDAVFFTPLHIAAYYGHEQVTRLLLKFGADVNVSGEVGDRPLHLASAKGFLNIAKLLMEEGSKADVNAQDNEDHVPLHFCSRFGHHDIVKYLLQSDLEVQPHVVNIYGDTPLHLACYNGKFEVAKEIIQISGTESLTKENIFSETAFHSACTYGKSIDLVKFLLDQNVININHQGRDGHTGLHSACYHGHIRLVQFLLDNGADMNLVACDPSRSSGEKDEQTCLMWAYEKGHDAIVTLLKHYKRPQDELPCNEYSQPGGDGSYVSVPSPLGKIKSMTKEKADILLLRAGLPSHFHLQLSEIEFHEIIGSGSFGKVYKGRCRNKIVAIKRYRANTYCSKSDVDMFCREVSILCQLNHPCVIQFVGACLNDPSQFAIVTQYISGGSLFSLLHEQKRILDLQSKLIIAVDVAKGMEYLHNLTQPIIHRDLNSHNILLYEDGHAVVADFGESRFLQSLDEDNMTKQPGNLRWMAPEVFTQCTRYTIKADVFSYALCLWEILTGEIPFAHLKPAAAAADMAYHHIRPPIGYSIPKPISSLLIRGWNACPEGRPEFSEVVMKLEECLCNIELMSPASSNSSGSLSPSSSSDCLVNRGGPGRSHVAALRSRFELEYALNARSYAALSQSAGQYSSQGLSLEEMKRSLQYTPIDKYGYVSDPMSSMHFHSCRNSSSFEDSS
Description: Selectivity interaction (Ambit KINOMEscan and KiNATiv profiling in Jurkat cells) EUB0000090b TNNI3K. The format is cell-based. The note with it: at 1 µM.

Assay [8] concerns the target T2, Ephrin type-A receptor 6 (Homo sapiens) (UniProt Q9UF33).
T2 sequence (whole entry): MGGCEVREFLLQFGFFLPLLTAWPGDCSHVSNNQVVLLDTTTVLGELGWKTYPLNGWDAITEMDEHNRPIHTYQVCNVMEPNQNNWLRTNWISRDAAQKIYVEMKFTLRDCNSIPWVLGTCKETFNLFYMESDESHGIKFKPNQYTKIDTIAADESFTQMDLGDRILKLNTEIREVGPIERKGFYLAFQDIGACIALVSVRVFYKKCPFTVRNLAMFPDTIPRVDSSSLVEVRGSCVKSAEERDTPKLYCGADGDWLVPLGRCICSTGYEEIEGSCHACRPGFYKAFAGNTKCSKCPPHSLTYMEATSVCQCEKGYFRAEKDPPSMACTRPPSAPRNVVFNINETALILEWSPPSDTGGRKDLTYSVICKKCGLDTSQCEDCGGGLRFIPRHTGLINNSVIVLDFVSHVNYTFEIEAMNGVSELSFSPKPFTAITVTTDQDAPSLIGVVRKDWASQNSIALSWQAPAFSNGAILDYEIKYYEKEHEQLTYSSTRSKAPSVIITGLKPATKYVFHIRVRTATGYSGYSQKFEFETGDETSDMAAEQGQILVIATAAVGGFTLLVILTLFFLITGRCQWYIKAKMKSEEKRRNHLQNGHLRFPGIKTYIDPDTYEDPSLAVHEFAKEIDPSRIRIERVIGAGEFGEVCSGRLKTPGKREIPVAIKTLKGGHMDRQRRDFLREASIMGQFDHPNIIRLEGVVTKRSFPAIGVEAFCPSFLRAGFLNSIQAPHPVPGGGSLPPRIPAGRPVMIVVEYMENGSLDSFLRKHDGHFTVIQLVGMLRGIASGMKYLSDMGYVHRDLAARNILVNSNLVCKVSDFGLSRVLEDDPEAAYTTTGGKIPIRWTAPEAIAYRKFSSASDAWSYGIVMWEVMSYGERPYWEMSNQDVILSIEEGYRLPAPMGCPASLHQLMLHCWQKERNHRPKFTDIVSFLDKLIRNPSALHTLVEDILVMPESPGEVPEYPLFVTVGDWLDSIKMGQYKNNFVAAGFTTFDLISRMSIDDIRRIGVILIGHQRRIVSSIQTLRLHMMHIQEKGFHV
Put plainly: Selectivity interaction (KinomeScan (DiscoverX)) EUB0001049a EPHA6. To be noted: at 1 µM.

Assay [9] addresses Protein-tyrosine kinase 2-beta (Homo sapiens) (UniProt Q14289). Description: Selectivity interaction (KinomeScan (DiscoverX)) EUB0000092b PTK2B. The note with it: at 10 µM.
For assay [10], the target named is T3, Aurora kinase C (Homo sapiens) (UniProt Q9UQB9).
T3 sequence (whole entry): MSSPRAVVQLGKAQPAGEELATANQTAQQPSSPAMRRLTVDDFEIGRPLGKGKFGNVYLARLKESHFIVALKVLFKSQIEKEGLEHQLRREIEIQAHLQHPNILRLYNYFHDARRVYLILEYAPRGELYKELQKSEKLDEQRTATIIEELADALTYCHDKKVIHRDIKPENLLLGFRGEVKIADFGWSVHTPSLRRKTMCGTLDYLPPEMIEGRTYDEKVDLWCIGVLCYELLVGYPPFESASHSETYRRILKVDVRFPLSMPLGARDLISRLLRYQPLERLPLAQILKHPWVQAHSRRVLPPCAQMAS
Description: Selectivity interaction (KinomeScan (DiscoverX)) EUB0001079a AURKC. To be noted: at 1 µM.

The target in assay [11] is Dual specificity mitogen-activated protein kinase kinase 2 (Homo sapiens) (UniProt P36507).
In assay [12] the target is cAMP-dependent protein kinase catalytic subunit alpha (Homo sapiens, UniProt P17612). Put plainly: Selectivity interaction (Millipore kinase profiler) EUB0000124b PRKACA. To be noted: at 10 µM.

Sequence of Dual specificity protein kinase CLK2 (P49760 whole entry, looked up): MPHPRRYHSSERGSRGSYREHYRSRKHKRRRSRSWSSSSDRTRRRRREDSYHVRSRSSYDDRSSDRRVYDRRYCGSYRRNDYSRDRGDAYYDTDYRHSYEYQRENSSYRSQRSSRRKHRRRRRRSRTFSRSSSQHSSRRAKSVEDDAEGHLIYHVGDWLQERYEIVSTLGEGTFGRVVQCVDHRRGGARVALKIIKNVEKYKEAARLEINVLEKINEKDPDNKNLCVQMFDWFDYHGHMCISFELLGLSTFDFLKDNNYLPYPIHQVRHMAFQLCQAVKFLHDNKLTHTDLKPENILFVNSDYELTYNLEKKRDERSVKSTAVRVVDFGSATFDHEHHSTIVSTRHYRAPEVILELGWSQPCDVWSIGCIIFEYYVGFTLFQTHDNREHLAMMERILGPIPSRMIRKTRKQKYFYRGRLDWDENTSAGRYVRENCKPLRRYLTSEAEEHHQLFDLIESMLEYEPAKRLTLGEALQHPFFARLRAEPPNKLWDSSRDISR
Sequence of Macrophage colony-stimulating factor 1 receptor (Homo sapiens) (P07333 whole entry): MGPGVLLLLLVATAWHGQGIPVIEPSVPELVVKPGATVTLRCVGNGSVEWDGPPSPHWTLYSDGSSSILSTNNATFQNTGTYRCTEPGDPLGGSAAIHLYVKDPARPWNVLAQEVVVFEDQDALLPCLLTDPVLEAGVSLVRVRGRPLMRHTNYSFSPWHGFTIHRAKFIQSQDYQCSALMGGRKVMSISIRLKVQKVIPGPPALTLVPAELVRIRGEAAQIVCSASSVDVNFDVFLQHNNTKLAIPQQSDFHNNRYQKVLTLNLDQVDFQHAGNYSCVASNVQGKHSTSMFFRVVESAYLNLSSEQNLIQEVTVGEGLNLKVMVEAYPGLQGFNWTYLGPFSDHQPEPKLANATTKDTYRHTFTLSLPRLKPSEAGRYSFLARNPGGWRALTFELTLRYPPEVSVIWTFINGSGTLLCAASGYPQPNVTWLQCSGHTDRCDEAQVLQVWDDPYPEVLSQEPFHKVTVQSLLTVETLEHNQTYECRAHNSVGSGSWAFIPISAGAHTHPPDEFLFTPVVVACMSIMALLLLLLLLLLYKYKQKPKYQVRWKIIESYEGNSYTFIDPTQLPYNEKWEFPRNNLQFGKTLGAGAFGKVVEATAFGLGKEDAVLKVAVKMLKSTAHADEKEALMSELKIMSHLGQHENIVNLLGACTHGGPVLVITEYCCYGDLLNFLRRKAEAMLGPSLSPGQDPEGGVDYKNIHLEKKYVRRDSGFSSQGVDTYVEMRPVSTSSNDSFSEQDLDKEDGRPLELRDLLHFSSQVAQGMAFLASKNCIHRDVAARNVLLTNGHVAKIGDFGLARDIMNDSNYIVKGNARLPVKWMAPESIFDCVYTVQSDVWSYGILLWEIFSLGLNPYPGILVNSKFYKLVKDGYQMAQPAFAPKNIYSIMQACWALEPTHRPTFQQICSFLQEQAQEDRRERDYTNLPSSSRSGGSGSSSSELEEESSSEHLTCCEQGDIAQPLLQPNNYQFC
Sequence of Ribosomal protein S6 kinase alpha-1 (Q15418 whole entry): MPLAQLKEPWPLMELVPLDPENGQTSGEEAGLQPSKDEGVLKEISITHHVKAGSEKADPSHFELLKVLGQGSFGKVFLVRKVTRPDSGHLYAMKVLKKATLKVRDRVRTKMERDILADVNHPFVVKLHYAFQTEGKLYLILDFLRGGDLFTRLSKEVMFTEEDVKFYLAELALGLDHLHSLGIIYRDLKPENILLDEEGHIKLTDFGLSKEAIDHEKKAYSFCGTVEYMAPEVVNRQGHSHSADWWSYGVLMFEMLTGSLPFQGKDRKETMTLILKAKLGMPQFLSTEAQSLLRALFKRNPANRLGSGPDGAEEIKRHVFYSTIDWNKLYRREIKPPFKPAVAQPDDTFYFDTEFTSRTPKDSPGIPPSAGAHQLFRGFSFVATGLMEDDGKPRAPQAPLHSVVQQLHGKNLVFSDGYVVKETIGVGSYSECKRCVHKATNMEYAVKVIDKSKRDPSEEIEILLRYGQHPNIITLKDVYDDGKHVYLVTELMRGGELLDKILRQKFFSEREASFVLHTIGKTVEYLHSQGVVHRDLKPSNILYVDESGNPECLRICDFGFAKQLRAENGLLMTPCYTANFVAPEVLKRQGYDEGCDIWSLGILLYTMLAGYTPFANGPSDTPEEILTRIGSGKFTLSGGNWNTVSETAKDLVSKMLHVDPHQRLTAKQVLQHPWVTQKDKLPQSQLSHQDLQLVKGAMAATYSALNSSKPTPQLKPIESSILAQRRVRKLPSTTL
Sequence of Calcium/calmodulin-dependent protein kinase type II subunit alpha (Q9UQM7 whole entry): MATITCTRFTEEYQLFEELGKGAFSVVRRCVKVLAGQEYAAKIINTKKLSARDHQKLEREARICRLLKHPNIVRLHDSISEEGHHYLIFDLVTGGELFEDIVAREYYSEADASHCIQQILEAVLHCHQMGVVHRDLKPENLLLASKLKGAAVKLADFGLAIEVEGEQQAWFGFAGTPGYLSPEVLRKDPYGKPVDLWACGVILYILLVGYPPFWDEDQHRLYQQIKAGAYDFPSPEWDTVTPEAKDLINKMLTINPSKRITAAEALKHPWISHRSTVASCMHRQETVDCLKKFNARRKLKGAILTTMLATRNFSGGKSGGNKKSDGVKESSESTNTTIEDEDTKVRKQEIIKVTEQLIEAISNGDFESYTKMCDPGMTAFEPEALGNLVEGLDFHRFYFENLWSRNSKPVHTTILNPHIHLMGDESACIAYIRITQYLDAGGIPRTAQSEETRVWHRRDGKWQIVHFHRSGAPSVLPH
Sequence of Inhibitor of nuclear factor kappa-B kinase subunit epsilon (Q14164 whole entry): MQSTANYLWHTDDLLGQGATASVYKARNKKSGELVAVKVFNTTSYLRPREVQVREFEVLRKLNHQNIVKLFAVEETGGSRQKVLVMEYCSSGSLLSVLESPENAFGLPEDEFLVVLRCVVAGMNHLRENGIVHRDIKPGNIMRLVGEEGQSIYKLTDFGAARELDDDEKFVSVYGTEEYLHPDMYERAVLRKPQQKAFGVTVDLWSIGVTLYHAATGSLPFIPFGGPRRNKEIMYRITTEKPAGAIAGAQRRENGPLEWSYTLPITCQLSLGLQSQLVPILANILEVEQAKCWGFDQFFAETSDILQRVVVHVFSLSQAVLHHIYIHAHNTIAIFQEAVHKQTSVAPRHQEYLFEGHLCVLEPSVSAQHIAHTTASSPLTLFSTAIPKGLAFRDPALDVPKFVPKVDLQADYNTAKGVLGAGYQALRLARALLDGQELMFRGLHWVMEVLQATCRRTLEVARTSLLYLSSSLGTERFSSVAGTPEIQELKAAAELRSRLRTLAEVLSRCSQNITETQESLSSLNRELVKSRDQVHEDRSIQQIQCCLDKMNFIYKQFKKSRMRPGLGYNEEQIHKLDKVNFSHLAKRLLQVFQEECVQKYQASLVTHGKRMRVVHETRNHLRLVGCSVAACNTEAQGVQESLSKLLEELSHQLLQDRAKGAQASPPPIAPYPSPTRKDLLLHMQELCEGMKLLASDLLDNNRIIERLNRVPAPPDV
Sequence of Platelet-derived growth factor receptor beta (P09619 whole entry): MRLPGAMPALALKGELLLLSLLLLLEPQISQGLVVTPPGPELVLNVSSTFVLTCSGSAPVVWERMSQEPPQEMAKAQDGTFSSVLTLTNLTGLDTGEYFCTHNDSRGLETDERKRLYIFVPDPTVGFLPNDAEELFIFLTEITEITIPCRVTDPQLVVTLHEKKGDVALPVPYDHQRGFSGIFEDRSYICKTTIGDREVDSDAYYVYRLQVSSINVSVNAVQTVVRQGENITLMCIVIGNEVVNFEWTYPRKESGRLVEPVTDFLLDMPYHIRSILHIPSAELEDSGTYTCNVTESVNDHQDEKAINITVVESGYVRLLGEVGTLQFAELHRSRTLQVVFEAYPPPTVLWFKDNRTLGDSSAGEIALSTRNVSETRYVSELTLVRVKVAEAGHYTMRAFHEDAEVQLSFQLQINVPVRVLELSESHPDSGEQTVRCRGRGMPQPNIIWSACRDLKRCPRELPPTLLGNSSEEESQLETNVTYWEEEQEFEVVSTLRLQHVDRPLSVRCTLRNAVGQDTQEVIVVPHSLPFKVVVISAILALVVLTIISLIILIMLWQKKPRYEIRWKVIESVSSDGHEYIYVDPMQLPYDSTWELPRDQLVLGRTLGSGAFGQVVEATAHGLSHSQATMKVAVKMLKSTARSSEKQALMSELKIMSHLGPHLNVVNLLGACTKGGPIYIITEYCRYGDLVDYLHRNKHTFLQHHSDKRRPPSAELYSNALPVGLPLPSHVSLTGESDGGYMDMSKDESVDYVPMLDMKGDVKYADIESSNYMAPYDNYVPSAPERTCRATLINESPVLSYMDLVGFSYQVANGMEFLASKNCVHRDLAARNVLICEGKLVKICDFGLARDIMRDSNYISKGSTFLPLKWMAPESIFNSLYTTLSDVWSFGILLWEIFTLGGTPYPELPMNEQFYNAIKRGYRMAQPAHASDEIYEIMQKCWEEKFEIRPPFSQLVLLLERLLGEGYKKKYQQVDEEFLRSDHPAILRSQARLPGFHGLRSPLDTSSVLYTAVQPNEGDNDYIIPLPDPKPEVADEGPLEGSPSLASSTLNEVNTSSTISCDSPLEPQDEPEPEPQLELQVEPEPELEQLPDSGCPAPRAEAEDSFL
Sequence of Dual specificity mitogen-activated protein kinase kinase 2 (Homo sapiens) (P36507 whole entry): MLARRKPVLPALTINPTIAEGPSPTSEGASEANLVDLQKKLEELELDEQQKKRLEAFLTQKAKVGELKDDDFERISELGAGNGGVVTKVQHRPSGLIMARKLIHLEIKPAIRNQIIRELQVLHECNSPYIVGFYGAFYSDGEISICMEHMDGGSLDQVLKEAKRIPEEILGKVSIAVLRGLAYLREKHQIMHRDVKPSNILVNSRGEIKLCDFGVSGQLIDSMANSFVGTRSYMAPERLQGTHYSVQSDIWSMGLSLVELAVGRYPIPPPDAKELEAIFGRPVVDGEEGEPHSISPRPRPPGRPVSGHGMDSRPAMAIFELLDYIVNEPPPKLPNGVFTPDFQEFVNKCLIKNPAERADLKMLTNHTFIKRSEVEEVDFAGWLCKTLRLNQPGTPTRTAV

`Cn1cc(-n2cnc3c(NCc4nc5cc(Cl)c(Cl)cc5[nH]4)nc(N4CCOCC4)nc32)cn1` came in with a % of control in assay [1] of 12.7%. Consider `CCN(CC)CCCCNc1ncc2cc(-c3cc(OC)cc(OC)c3)c(NC(=O)NC(C)(C)C)nc2n1`, for which the % of control in assay [2] came to 100%. In [3], `CCc1cc(Nc2nccc(-c3c(-c4ccc(OC)c(C(=O)Nc5c(F)cccc5F)c4)nc4ccccn34)n2)c(OC)cc1N1CCC(N2CCN(S(C)(=O)=O)CC2)CC1` had an IC50 of 3.2 µM. This lies in the single-digit micromolar range. On to `CC[C@@H]1[C@H](F)C(=O)N[C@@H]1COc1nccc2cc(C(N)=O)c(OC)cc12` [ZIMLOVISERTIB], for which the % of inhibition in assay [4] was -5.9%; in assay [5] (at 0.01 µM), 26.8%; in [5] (at 0.04 µM), 32.4%; in assay [5] (at 0.2 µM), 38.8%; in assay [5] (at 1 µM), 14.3%; in [5] (at 5 µM) it was 19.9%.

In the case of `C=CC(=O)Nc1cc(-n2c(=O)ccc3cnc4ccc(-c5ccc(NS(C)(=O)=O)cc5)cc4c32)ccc1C`, the % of control is 94% in assay [6] (at 1 µM) and 87% in assay [6] (at 10 µM).

As to `CN(C)C/C=C/C(=O)Nc1ccc(C(=O)N2CCCC(Nc3ncc(Cl)c(-c4c[nH]c5ccccc45)n3)C2)cc1` (configuration not stated), in [7], the % of control turned out to be 86%.

In assay [8], `COc1cc(Nc2nc(C)cc(-c3cnn4nc(OC)ccc34)n2)cc(C(F)(F)F)c1` gave a % of control of 95%.

Turning to `CCC(=O)N1CCN(c2ccc(-n3c(=O)ccc4cnc5ccc(-c6cnc7ccccc7c6)cc5c43)cc2C(F)(F)F)CC1`, the % of control in assay [9] amounted to 100%. In the case of `Nc1cnc(N2CCc3cc(S(=O)(=O)Nc4c(F)cc(Cl)cc4F)cc(N4CCCC4=O)c32)nc1` [TP-020n], in [10], the % of control worked out at 100%. In the case of `CC(=O)Nc1cccc(-n2c(=O)n(C3CC3)c(=O)c3c(Nc4ccc(I)cc4F)n(C)c(=O)c(C)c32)c1`, the Kdapp in [11] worked out at 9 nM. For the same compound, the % of control in assay [12] is 98%.
